Laboratory results as given in patent US20110178024A1, “AMYLOID BETA-PEPTIDES AND METHODS OF USE THEREOF” (Ben Gurion University of the Negev Research and Development …, priority 2008, published 2011).
“Also recorded” adds a separate entry of the source.

Columns and labels:
[1] = tested on: Aβ-reactive T-cell line 1 (DRB1 1501/1502); test: Human T-cell line proliferation assay, T-cell line 1; format: cell-based; details: for T-cell proliferation ([3H]thymidine incorporation), in words: T-cell line 1, autologous PBMCs
Protocol: (§1) PBMCs were isolated from the freshly drawn heparinized whole blood of each study participant (N=133) by Ficoll-Paque (Amersham Pharmacia Biotech, Uppsala, Sweden) gradient centrifugation, according to the manufacturer's instructions. Cells were cultured in 30 wells of 96-well round-bottom plates at 2×10^5 cells/well in RPMI medium (containing 2.5% nonautologous serum, 4 mM L-glutamine, 10 mM HEPES, 1 mM sodium pyruvate, and 10 mM nonessential amino acids) in the presence of pure human Aβ1-42 peptide. On the 5th day of culture, 10 U/ml of recombinant human interleukin (IL)-2 was added by replacing half of the medium with IL-2-containing medium. On day 7 the medium was replaced with IL-2-free medium. On day 10, half of the cells from each well were restimulated with irradiated autologous PBMCs in the presence or absence of 5 μg/ml Aβ for 48 hours and then pulsed with [3H] thymidine for 12 hours. Cells w then harvested, their radioactivity measured (in cpm), and the stimulation index (SI; (cpm in the presence of Aβ divided by cpm in the absence of Aβ) determined. Positive wells (SI≧2.5 and Δcpm of at least 2000) obtained in the split-well assay were restimulated, 14 days after their primary stimulation, in the presence of irradiated (7000 R) autologous PBMCs (2×10^5 cells/well) and Aβ1-42. T-cell lines were then supplemented with IL-2 (10 U/ml) after 48 hours and every 2 days thereafter until they reached a resting state.
(§2) Antigen (Ag)-specific proliferative responses were measured by culturing the contents of positive wells from the split-well assay with irradiated PBMCs (2×10^5/well) at 37° C. in duplicate wells in 96-well U-bottom microtiter plates in a final volume of 200 μl of culture medium alone or culture medium containing serially diluted nested Aβ peptides. After 48 hours, 1 μCi of [3H]thymidine (Amersham, Arlington Heights, Ill.) was added to each well in 50 μl of culture medium. The cells were harvested 16 hours later onto fiberglass filters with a cell harvester (Packard, Filtermate 196), and [3H]thymidine incorporation was determined with a Packard Matrix 96 direct counter.

[2] = tested on: splenocyte-derived T cells of HLA-DR15 humanized mice; test: Proliferation assay of mouse-derived T cells, Aβ-immunized DR15 humanized mice; format: cell-based; details: for T-cell proliferation, in words: mice bearing the DRB1*1501 allele
Protocol: (§3) Mice were immunized by subcutaneous injection of Aβ 1-42 ([…]) emulsified in complete Freund's Adjuvant (CFA) H37Ra (Difco, Detroit, Mich., USA) or in incomplete Freund's Adjuvant (IFA; Sigma, Israel), as indicated in Figure legends. When indicated, pertussis toxin (PTX) (List Biological Laboratories, Campbell, Calif., USA) was injected intravenously (200 ng/mouse) on day 0 and again 48 hours later.
(§4) Popliteal lymph nodes or spleens of immunized mice were harvested and cultured (5×10^6 cells/ml) in U-shaped 96-well-plate culture dishes in DMEM containing 10% fetal calf serum, 10 mM HEPES, 1 mM sodium pyruvate, 10 mM nonessential amino acids, 1% Pen/Strep, and […] b-mercaptoethanol. After 72 hours, 3[H]thymidine ([…]) was added. Cells were harvested after 12 hours, and their radioactivity was measured.

[3] = tested on: Aβ-reactive T-cell line 2 (DRB1 1301/0401); test: Human T-cell line proliferation assay, T-cell line 2; format: cell-based; details: T-cell line 2, autologous PBMCs
Protocol: as §1, §2

Aβ-reactive T-cell lines = test: Epitope specificity and HLA-DR allele restriction of Aβ-reactive T-cell lines; format: cell-based, human; details: autologous and semi-autologous PBMCs as antigen-presenting cells
Protocol: as §1, §2
High-resolution HLA typing of PBMCs of the human subjects was carried out at the Brigham and Women's Hospital Clinical Laboratory using the PCR/RFLP method. Genomic DNA was extracted from whole blood or frozen cells. DNA was amplified using locus-specific and group-specific primers for DNA class II loci. DNA fragments were detected using agarose gel electrophoresis and subjected to restriction enzyme digestion, as recommended by the 10th International Histocompatibility Workshop (http://www.ihwg.org/components/ssopr.htm). The DNA fragments were then separated by agarose gel electrophoresis and the specific HLA-DR alleles were analyzed visually.
To identify the HLA-DR alleles that play a role in Aβ immunogenicity, Aβ-reactive T-cell lines were generated from the PBMCs of human subjects as described in Materials and Methods. These T cells were then restimulated with autologous or semi-autologous PBMCs (nonautologous PBMCs bearing one of the autologous DRB1 alleles) to determine their epitope specificity and identify their dominant epitope-presenting HLA-DR alleles. Overall, the PBMCs of 89 of the 133 individuals analyzed in this study yielded positive Aβ-reactive T-cell responses in the split-well assay as described in Materials and Methods and our previous publication ((2003). J Clin Invest 112:415-422). From these 89 PBMC samples, 39 Aβ-reactive T-cell lines were successfully generated and were analyzed for epitope specificity and HLA-DR allele restriction, as shown in FIG. 1. Table 2 lists the HLA-DR alleles whose expression by PBMCs was essential for proliferation of the Aβ-specific T-cell lines. The table also records the frequency of the HLA-DR alleles in our study population and lists the Aβ peptides harboring the dominant T-cell epitopes. […]

[4] = tested on: splenocyte-derived T cells of HLA-DR4 humanized mice; test: Proliferation assay of mouse-derived T cells, Aβ-immunized DR4 humanized mice; format: cell-based; details: mice bearing the DR4 allele
Protocol: as §3, §4

HLA-DR4 (DRB1*0401) = HLA-DR4 (DRB1*0401) (human); test: cell-based or functional assay
HLA-DR15 (DRB1*1501) = HLA-DR15 (DRB1*1501) (human); test: cell-based or functional assay

Which results are given for “Aβ1-28: N-terminal fragment of Aβ, residues 1-28; nested overlapping Aβ peptide”?
T-cell proliferation ([3H]thymidine incorporation), in words [1]: only mild T-cell proliferation; T-cell proliferation, in words [2]: only a mild T-cell response

Which “T-cell proliferation ([3H]thymidine incorporation), in words” value [3] does the source give for “Aβ19-33: nested overlapping Aβ peptide, residues 19-33 (FFAEDVGSNKGAIIG)” here?
Its value is “Substantially lower T-cell proliferation”.

What does the source list for “QKLVFFAEDVGSNKGAIIGL (listed as Homo sapiens) [Aβ15-34]”?
T-cell proliferation ([3H]thymidine incorporation), in words [3]: stimulated; DRB1 allele with which the T-cell-stimulatory Aβ peptide stimulates Aβ-reactive T-cell lines (Aβ-reactive T-cell lines): DRB1*0101

GSNKGAIIGLMVGGV [Aβ25-39] was tested. Which “SI (stimulation index), T-cell proliferation” value ([1]; T-cell line 1, 5 μg peptide/ml, irradiated autologous PBMCs, 72 hours) did it give?
The value was 17.3.

What about the “T-cell proliferation ([3H]thymidine incorporation), in words” value [1] of the same molecule?
The value was “specifically stimulated”.

What about the “SI (stimulation index), T-cell proliferation” value ([2]; DR15 mice, 10 μg/ml, 72 hours) of the same molecule?
The value was 8.8.

“LVFFAEDVGSNKGAI (listed as Homo sapiens) [Aβ17-31]” was tested. Which “T-cell proliferation ([3H]thymidine incorporation), in words” value [3] did it give?
The value was “stimulated”.

And the “DRB1 allele with which the T-cell-stimulatory Aβ peptide stimulates Aβ-reactive T-cell lines” value (shortened to “DRB1 allele”) (Aβ-reactive T-cell lines)?
The value was “DRB1*1301”.

How did the “DRB1 allele” value (Aβ-reactive T-cell lines) turn out when “Aβ25-42: T-cell-stimulatory Aβ peptides between Aβ residues 25 and 42 (GSNKGAIIGLMVGGVVIA; Amyloid-beta protein 42; UniProt P05067 696-713, looked up, fragment)” was run?
The value was “DRB1*1501”.

Which results are given for “VFFAEDVGSNKGAII (listed as Homo sapiens) [Aβ18-32]”?
T-cell proliferation ([3H]thymidine incorporation), in words [3]: stimulated; DRB1 allele with which the T-cell-stimulatory Aβ peptide stimulates Aβ-reactive T-cell lines (Aβ-reactive T-cell lines): DRB1*0404; also recorded: DRB1*0401

With “QKLVFFAEDVGSNKG (listed as Homo sapiens) [Aβ15-29]” as the molecule, how does the “DRB1 allele” value (Aβ-reactive T-cell lines) read?
The value was “DRB1*1001”.

With “KLVFFAEDVGSNKGA (listed as Homo sapiens) [Aβ16-30]” as the molecule, how does the “T-cell proliferation ([3H]thymidine incorporation), in words” value [3] read?
Its value is “stimulated”.

“QKLVFFAEDVGSNKGAIIGLMVGGVVIA (listed as Homo sapiens) [Aβ15-42]” was tested. Which “T-cell proliferation ([3H]thymidine incorporation), in words” value [1] did it give?
The value was “triggered”.

And the “T-cell proliferation ([3H]thymidine incorporation), in words” value [3]?
The value was “triggered”.

What about the “T-cell proliferation, in words” value [2] of the same molecule?
Its value is “strong T-cell proliferation”.

And the “T-cell proliferation, in words” value [4]?
Its value is “induced”.

And the “DRB1 allele” value (Aβ-reactive T-cell lines)?
Its value is “DRB1*1502; also recorded: DRB1*0301”.

B1: Aβ16-30 peptide (peptide)
peptide: KLVFFAEDVGSNKGA
With B1 as the molecule, how does the “T-cell line 2 proliferation, SI at 5 µg peptide/ml” value (“T-cell line 2 proliferation, SI” for short) (HLA-DR4 (DRB1*0401)) read?
Its value is 6.4 SI.

And the “T-cell proliferation of splenocytes of Aβ-immunized DR4 mice, SI at 10 µg/ml” value (HLA-DR4 (DRB1*0401))?
The value was 5.9 SI.

B2: Aβ17-31 peptide (peptide)
peptide: LVFFAEDVGSNKGAI
What does the source list for B2?
T-cell line 2 proliferation, SI at 5 µg peptide/ml (HLA-DR4 (DRB1*0401)): 6.2 SI; T-cell proliferation of splenocytes of Aβ-immunized DR4 mice, SI at 10 µg/ml (HLA-DR4 (DRB1*0401)): 6.1 SI

B3: Aβ18-32 peptide (peptide)
peptide: VFFAEDVGSNKGAII
B3 was tested. Which “T-cell line 2 proliferation, SI” value (HLA-DR4 (DRB1*0401)) did it give?
The value was 6.1 SI.

And the “T-cell proliferation of splenocytes of Aβ-immunized DR4 mice, SI at 10 µg/ml” value (HLA-DR4 (DRB1*0401))?
The value was 9.2 SI.

B4: Aβ15-42 peptide (peptide)
peptide: QKLVFFAEDVGSNKGAIIGLMVGGVVIA
B4 was tested. Which “T-cell line 1 proliferation, SI at 5 µg peptide/ml” value (from here on “T-cell line 1 proliferation, SI”) (HLA-DR15 (DRB1*1501)) did it give?
Its value is 15.8 SI.

And the “T-cell proliferation of splenocytes of Aβ-immunized DR15 mice, SI at 10 µg/ml” value (HLA-DR15 (DRB1*1501))?
Its value is 14.2 SI.

What about the “T-cell line 2 proliferation, SI” value (HLA-DR4 (DRB1*0401)) of the same molecule?
The value was 7.8 SI.

What about the “T-cell proliferation of splenocytes of Aβ-immunized DR4 mice, SI at 10 µg/ml” value (HLA-DR4 (DRB1*0401)) of the same molecule?
The value was 3.7 SI.

B5: Aβ25-39 peptide (peptide)
peptide: GSNKGAIIGLMVGGV
Which results are given for B5?
T-cell line 1 proliferation, SI at 5 µg peptide/ml (HLA-DR15 (DRB1*1501)): 17.3 SI; T-cell proliferation of splenocytes of Aβ-immunized DR15 mice, SI at 10 µg/ml (HLA-DR15 (DRB1*1501)): 8.8 SI

B6: Aβ28-42 peptide (peptide)
peptide: KGAIIGLMVGGVVIA
How did the “T-cell line 1 proliferation, SI” value (HLA-DR15 (DRB1*1501)) turn out when B6 was run?
Its value is 12.6 SI.

And the “T-cell proliferation of splenocytes of Aβ-immunized DR15 mice, SI at 10 µg/ml” value (HLA-DR15 (DRB1*1501))?
Its value is 12.2 SI.

B7: Aβ22-36 peptide (peptide)
peptide: EDVGSNKGAIIGLMV
With B7 as the molecule, how does the “T-cell line 1 proliferation, SI” value (HLA-DR15 (DRB1*1501)) read?
Its value is 10.2 SI.
